Here are results for twelve compounds from patent US6806276B2, “2-oxoquinoline compounds and pharmaceutical uses thereof” (Japan Tobacco Inc., priority 1999, dated 2004).

The target in test [1] is T1, human peripheral type cannabinoid receptor (hCB2) (Homo sapiens, UniProt P34972).
T1 construct: expressed in transfected cells; host or cells: CHO cells
Kind of test: Binding assay (in vitro), [3H]Win55212-2 displacement, membrane fractions of human CB2-CHO. To be noted: for Ki: hCB2 expressed in CHO cells, [3H]Win55212-2 2 nM, 30° C. 90 minutes.
Description: Membrane fractions of human central type cannabinoid receptor (human CB1-CHO, hereinafter called hCB1) and human peripheral type cannabinoid receptor (human CB2-CHO, hereinafter called hCB2) expressed in CHO cells were used as samples. The reference material (hCB1: 20 μg/ml, hCB2: 5 μg/ml), labeled ligand ([^3H]Win55212-2, 2 nM) and unlabeled ligand Win55212-2 or test compound were added to a 24-well round bottom plate, and the plate was incubated at 30° C. for 90 minutes. 50 mM Tris-HB55 containing 0.2% BSA was used as an assay buffer. After incubation, the mixture was filtered (Packard, Unifilter 24GF/B) and dried, and then a scintillation solution (Packard, Microsint-20) was added thereto to determine the radioactivity of the sample (Packard, Top count A9912V). Nonspecific binding was determined by the addition of excessive amount of Win55212-2 (10 μM), and specific binding was calculated by subtracting the nonspecific binding from total binding determined by the addition of the labeled ligand only. The test compound was dissolved in DMSO to make the final concentration in DMSO to be 0.1%. IC50 value was determined from the proportion of the bound test compound in the specific binding, and K1 value of the test compound was calculated from the ICso value and Kd value of [^3H]Win55212-2. K1 value for the central type receptors/K1 value for peripheral type receptors (C/S) was also calculated as an indicator of the selectivity of the test compound for peripheral type receptors.

Test [2] deals with T2, human central type cannabinoid receptor (hCB1) (Homo sapiens, UniProt P21554).
T2 construct: expressed in transfected cells; host or cells: CHO cells
T2 sequence (P21554 whole entry): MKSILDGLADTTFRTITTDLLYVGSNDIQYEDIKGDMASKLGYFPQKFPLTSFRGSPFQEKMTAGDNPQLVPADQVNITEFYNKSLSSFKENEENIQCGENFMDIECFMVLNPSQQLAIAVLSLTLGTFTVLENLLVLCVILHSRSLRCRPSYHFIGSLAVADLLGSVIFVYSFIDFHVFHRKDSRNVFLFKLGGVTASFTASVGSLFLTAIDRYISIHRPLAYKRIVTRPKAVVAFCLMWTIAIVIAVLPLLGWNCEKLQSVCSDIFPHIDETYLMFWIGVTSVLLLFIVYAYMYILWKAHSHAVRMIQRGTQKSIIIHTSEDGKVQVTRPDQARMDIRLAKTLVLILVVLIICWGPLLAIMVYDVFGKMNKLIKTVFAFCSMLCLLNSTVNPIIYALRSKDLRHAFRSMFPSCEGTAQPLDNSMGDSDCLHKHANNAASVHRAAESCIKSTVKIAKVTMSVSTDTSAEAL
Put plainly: Binding assay (in vitro), [3H]Win55212-2 displacement, membrane fractions of human CB1-CHO. To be noted: hCB1 expressed in CHO cells, [3H]Win55212-2 2 nM, 30° C. 90 minutes.

Setting [3] is: Ki value Peripheral type receptor (S).
The mark [4] stands for this setting: indicator of selectivity for peripheral type receptors.
The mark [5] stands for this setting: read-out: Ki value Central type receptor (C).
Where [6] appears, read: read-out: Ki value Peripheral type receptor (S).
The mark [7] stands for this setting: Ki value Central type receptor (C).

Where two headings read alike, the source gives them in different places.

T1 sequence (P34972 whole entry): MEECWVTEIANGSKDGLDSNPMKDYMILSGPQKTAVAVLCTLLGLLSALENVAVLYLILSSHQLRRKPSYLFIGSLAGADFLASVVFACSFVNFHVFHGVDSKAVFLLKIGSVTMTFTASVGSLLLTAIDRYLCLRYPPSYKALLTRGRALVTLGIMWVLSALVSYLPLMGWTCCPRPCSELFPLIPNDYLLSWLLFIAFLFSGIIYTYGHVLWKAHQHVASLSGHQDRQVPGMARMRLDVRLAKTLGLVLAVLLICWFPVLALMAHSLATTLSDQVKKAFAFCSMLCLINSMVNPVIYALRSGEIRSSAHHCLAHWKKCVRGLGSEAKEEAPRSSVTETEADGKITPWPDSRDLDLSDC

As a reminder, the Ki is a measure of affinity in units of concentration, obtained from inhibition or displacement. As for `CCCCCOc1cc2cc(C(=O)OC)c(=O)[nH]c2cc1OC` [Example 1-2, 7-methoxy-2-oxo-6-pentyloxy-1,2-dihydroquinoline-3-carboxylic acid methyl ester], the inhibition constant Ki was 0.014 nM in test [1] (setting [3]) and 3670 nM in test [2] (setting [5]). The “C/S (Ki central type receptors / Ki peripheral type receptors)” value in test [1] (setting [4]) stood at 262202.
Taken in the same sequence, the figures for `CCCCCOc1cc2cc(C(=O)OC)c(=O)n(C)c2cc1OC` [Example 1-4, 1-methyl-7-methoxy-2-oxo-6-pentyloxy-1,2-dihydroquinoline-3-carboxylic acid methyl ester] were 4.49 nM, 1630 nM and 362.
On to `CCCCCOc1c(OC)ccc2cc(C(=O)O)c(=O)[nH]c12` [Example 2-1, 7-methoxy-2-oxo-8-pentyloxy-1,2-dihydroquinoline-3-carboxylic acid], for which the inhibitory constant (Ki) in test [1] (setting [6]) came to 8.9 nM; in test [2] (setting [5]), 4330 nM. The “C/S (Ki central type receptors / Ki peripheral type receptors)” value in test [1] (setting [4]) is on record as 487.
For the compound `CCCCOc1c(OC)ccc2cc(C(=O)O)c(=O)[nH]c12` [Example 2-2, 8-butoxy-7-methoxy-2-oxo-1,2-dihydroquinoline-3-carboxylic acid], the inhibition constant Ki in test [1] (setting [6]) was determined as 0.77 nM; in test [2] (setting [5]), 3250 nM. Moreover, the “C/S (Ki central type receptors / Ki peripheral type receptors)” value in test [1] (setting [4]) is listed as 42172.
Taken in the same sequence, the figures for `CCCOc1c(OC)ccc2cc(C(=O)O)c(=O)[nH]c12` [Example 2-4, 7-methoxy-2-oxo-8-propoxy-1,2-dihydroquinoline-3-carboxylic acid] were 0.032 nM, 905 nM and 28273.
For `CCCCCOc1cc2cc(C(=O)O)c(=O)[nH]c2cc1OC` [Example 2-5, 7-methoxy-2-oxo-6-pentyloxy-1,2-dihydroquinoline-3-carboxylic acid], the Ki turned out to be 0.2 nM in test [1] (setting [3]) and 434 nM in test [2] (setting [5]).
Consider `CCCCCOc1c(OC)ccc2cc(C(=O)O)c(=O)n(C)c12` [Example 2-6, 1-methyl-7-methoxy-2-oxo-8-pentyloxy-1,2-dihydroquinoline-3-carboxylic acid], for which the figures for the inhibition constant Ki in test [1] (setting [3]) and in test [2] (setting [5]) were 0.13 nM and 770 nM, respectively. Further, the “C/S (Ki central type receptors / Ki peripheral type receptors)” value in test [1] (setting [4]) is given as 5923.
On to `CCCCCOc1cc2cc(C(=O)O)c(=O)n(C)c2cc1OC` [Example 2-7, 1-methyl-7-methoxy-2-oxo-6-pentyloxy-1,2-dihydroquinoline-3-carboxylic acid], for which the results for the Ki in test [1] (setting [3]) and in test [2] (setting [5]) were 0.42 nM and 381 nM, respectively. For the same compound, the “C/S (Ki central type receptors / Ki peripheral type receptors)” value in test [1] (setting [4]) is given as 908.
For `CCCCCOc1c(OC)ccc2cc(C(=O)NCCc3ccncc3)c(=O)[nH]c12` [Example 3-1, 7-methoxy-2-oxo-8-pentyloxy-1,2-dihydroquinoline-3-carboxylic acid (2-pyridine-4-ylethyl)amide], in test [1], the “C/S (Ki central type receptors / Ki peripheral type receptors)” value came out at 372. Besides, the inhibitory constant (Ki) came to 0.13 ± 0.05 nM in test [1] (setting [3]) and 49 nM in test [2] (setting [7]).
Regarding `CCOc1c(OC)ccc2cc(C(=O)NCCc3ccncc3)c(=O)[nH]c12` [Example 3-6, 8-ethoxy-7-methoxy-2-oxo-1,2-dihydroquinoline-3-carboxylic acid (2-pyridine-4-ylethyl)amide], the Ki in test [2] (setting [5]) is 609 nM.
As for `CCCCCOc1c(OC)ccc2cc(C(=O)NCCc3ccc(O)cc3)c(=O)[nH]c12` [Example 3-7, 7-methoxy-2-oxo-8-pentyloxy-1,2-dihydroquinoline-3-carboxylic acid [2-(4-hydroxyphenyl)ethyl]amide], the inhibition constant (Ki) turned out to be 0.48 nM in test [1] (setting [3]) and 72 nM in test [2] (setting [7]). For the same compound, the “C/S (Ki central type receptors / Ki peripheral type receptors)” value in test [1] (setting [4]) was found to be 150.
In test [1] (setting [3]), `CCCCCOc1cc2cc(C(=O)NCCN3CCOCC3)c(=O)[nH]c2cc1OC` [Example 3-34, 7-methoxy-2-oxo-6-pentyloxy-1,2-dihydroquinoline-3-carboxylic acid (2-morpholinoethyl) amide] gave a Ki of 0.011 nM. For the same compound, the “C/S (Ki central type receptors / Ki peripheral type receptors)” value in test [1] (setting [4]) was 15672.
